Assay results as given in patent US20150037399A1, “NOVEL USE OF PIPOXOLAN AND ITS PHARMACEUTICAL COMPOSITION” (China Medical University, priority 2013, published 2015).

How the values were obtained:
[1] = test system: PDGF-BB-induced migration of A7r5 cells (VSMCs); test: Transwell migration assay; type: cell-based; settings: PDGF-BB 30 ng/ml 48 hr, vs PDGF-BB control, read-out: percent inhibition of cell migration across the membrane
Description: The VSMCs cell line A7r5 was purchased from Bioresource Collection and Research Center (Hsinchu, Taiwan). A7r5 cells were plated onto 6-well plates in DMEM, supplemented with 10% FBS, 100 units/ml penicillin, 100 μg/ml streptomycin and 2 mM L-glutamine and grown at 37° C. under a humidified 5% CO2 and 95% air at one atmosphere. Effects of pipoxolan on VSMCs migration were further investigated by a transwell migration chamber with a collagen-coated polycarbonate filter. A7r5 cells (2×10^5 cells) were seeded on a transwell apparatus (a 6.5-mm polyethylene terephthalate membrane with 8-μm pores) and treated with pipoxolan (0, 5, 10 and 15 μM) in the presence of PDGF-BB (30 ng/ml) for 48 hr. The cells were then trypsinized, resuspended in 0.5% FBS medium. FBS/DMEM (10%) was added to the bottom chamber of each well as the chemoattractant. Cells were allowed to migrate for 8 hr through the membrane to the underside of the apparatus. Cells were then fixed with methanol for 10 min and stained with Giemsa solution for 30 min. The cells migrating to the lower outside of the insert membrane were counted manually using a microscope and the NIS-Elements software.

[2] = test system: p-ERK; test: Western blot of p-ERK in PDGF-BB-stimulated VSMCs; type: cell-based
Description: (§1) The role of matrix metalloproteinase-2/9 (MMP-2/9) and the Ras/MEK/ERK signaling pathways were used to evaluate the effect of pipoxolan on VSMCs migration. The protein expression levels were determined by Western blot analysis. Each vertical bars represented mean±S.E. **p<0.01 and ***p<0.001 compared with control group (n=6 in each group).

[3] = test system: cleaved caspase-3 positive cells; test: Immunohistochemical staining of cleaved caspase-3 in rat brain slices; type: in vivo, Sprague-Dawley (SD) rats; settings: rat cortex
Description: Nine rats were randomly assigned into 3 treatment groups, three rats for each group. Group 1 rats were treated with saline and groups 2 and 3 treated with pipoxolan (10 mg/kg and 30 mg/kg, respectively). Focal ischemia was induced by occlusion of both CCA and the right MCA as previously described. Twenty four hours after focal ischemia, rats were deeply anesthetized by intraperitoneal injection of 50 mg/kg of zoletil® followed by intracardiac perfusion with 200 ml of 0.9% saline, followed by 4% paraformaldehyde in 0.1 M PBS and animals were decapitated. The percentage of positive TUNEL staining cells within areas of the cortex was estimated. Rat brain slices were incubated with anti-caspase-3 antibodies (GTX73093, GeneTex Inc., USA) overnight and immunohistochemical labeled using a NovoLink Polymer Detection System Kit (Leica Microsystems Inc., Newcastle Upon Tyne, UK). The percentage of positive caspase-3 staining cells within the cortex was estimated based on the average number of cells in a defined area.

[4] = test system: MMP-9; test: Western blot of MMP-9 in PDGF-BB-stimulated VSMCs; type: cell-based; settings: Rattus norvegicus, VSMC, read-out: inhibition of MMP-9 level
Description: as §1

[5] = test system: cerebral infarction area in the brain of ischemic rats; test: Transient focal cerebral ischemia-reperfusion model, infarct area (TTC staining); type: in vivo, Sprague-Dawley (SD) rats; settings: 24 hr after reperfusion, vs control group
Description: Animals are male Sprague-Dawley (SD) rats, weighing 225-275 g and male ICR mice, weighing 25-30 g were purchased from BioLASCO Co. Ltd. (Taipei, Taiwan). All animals were fed regular chow and housed in standard cages at a constant temperature of 22±1° C. and relative humidity of 55±5% with 12 hr inverted light-dark cycle for 1 week prior to the experiments. Surgery was performed under zoletil® anesthesia. Five to six animals were used to obtain consistent data in each group. Pipoxolan was dissolved in dimethylsulfoxide (DMSO) and diluted in tissue culture medium before use. Focal ischemia was induced by occlusion of both common carotid arteries (CCA) and the right middle cerebral artery (MCA). Eighteen rats were randomly assigned to 3 treatment groups, six rats for each group. Group 1 rats were treated with saline and groups 2 and 3 treated with pipoxolan (10 mg/kg and 30 mg/kg, respectively). Rats were fasted overnight with free access to water. […] After 24 hr, all rats were alive and neurobehavioral deficits evaluation and infarct assessment were performed Twenty four hours following reperfusion, neurological function of rats was assessed. […] The image of each section was digitized and the infarct area was determined morphometrically using Image-Pro Plus 6.0 (Media Cybernetics, Md., USA).

SMILES: Cl.O=C1OC(CCN2CCCCC2)OC1(c1ccccc1)c1ccccc1 (stereo not shown) [pipoxolan, 5,5-diphenyl-2-(2-piperidin-1-ylethyl)-1,3-dioxolan-4-one hydrochloride]
- inhibition at 5 µM ([1]; 5 μM): 46.2%
- inhibition at 10 µM ([1]; 10 μM): 62.2%
- inhibition at 15 µM ([1]; 15 μM): 76.5%
- reduction of p-ERK protein level ([2]; 5 μM): 50.33%
- reduction of p-ERK protein level ([2]; 10 μM): 51.67%
- reduction of p-ERK protein level ([2]; 15 μM): 75%
- reduction of cleaved caspase 3 positive cells ([3]; 10 mg/kg): 37.18%
- reduction of cleaved caspase 3 positive cells ([3]; 30 mg/kg): 63.44%
- inhibition at 5 µM ([4]; 5 μM): 39.4%
- inhibition at 10 µM ([4]; 10 μM): 45.4%
- inhibition at 15 µM ([4]; 15 μM): 36.6%
- percent reduction of cerebral infarction ([5]; 10 mg/kg p.o. 1 hr prior to ischemia): 43.18%
- percent reduction of cerebral infarction ([5]; 30 mg/kg p.o. 1 hr prior to ischemia): 73.43%
